{
  "source": "PubChem BioAssay AID256",
  "about": "(DTP/NCI, 2004)",
  "test_system": "CD2F1 mice, L1210 leukemia ip, survival T/C",
  "assay": "NCI In Vivo Anticancer Drug Screen. Data for tumor model L1210 Leukemia (intraperitoneal) in CD2F1 (CDF1) mice",
  "conditions": "higher = longer survival",
  "outline": "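Mice carrying a transplanted tumor received test compound or vehicle alone. The value is the measurement in the treated group divided by that in the vehicle-treated control group.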",
  "key": {"[1]": {"conditions": "endpoint: mean survival time, dose: 100.0 mg/kg/injection, schedule: Q04DX003 (ip), vehicle: saline"}, "[2]": {"conditions": "endpoint: mean survival time, dose: 200.0 mg/kg/injection, schedule: Q04DX003 (ip), vehicle: saline"}, "[3]": {"conditions": "endpoint: mean survival time, dose: 400.0 mg/kg/injection, schedule: Q04DX003 (ip), vehicle: saline"}},
  "note": "Where “and” joins values, the source holds several entries; their conditions need not be identical. Equal values may be shown once. Inconclusive results and toxic doses are left out.",
  "data": [
    {"smiles": "CN(Cc1cnc2nc(N)nc(N)c2n1)c1c(Cl)cc(C(=O)NC(CCC(=O)O)C(=O)O)cc1Cl", "note": "(centres undefined)", "values": [
      {"measurement": "T/C", "setting": "endpoint: mean survival time, dose: 44.0 mg/kg/injection, schedule: Q01DX009 (ip), vehicle: sodium bicarbonate", "value": "224 % of control"},
      {"measurement": "T/C", "setting": "endpoint: mean survival time, dose: 67.0 mg/kg/injection, schedule: Q01DX009 (ip), vehicle: sodium bicarbonate", "value": "256 % of control"},
      {"measurement": "T/C", "setting": "endpoint: mean survival time, dose: 100.0 mg/kg/injection, schedule: Q01DX009 (ip), vehicle: sodium bicarbonate", "value": "193 % of control"},
      {"measurement": "T/C", "setting": "endpoint: mean survival time, dose: 133.0 mg/kg/injection, schedule: Q01DX009 (ip), vehicle: sodium bicarbonate", "value": "170 % of control"},
      {"measurement": "T/C", "setting": "endpoint: mean survival time, dose: 150.0 mg/kg/injection, schedule: Q01DX009 (ip), vehicle: sodium bicarbonate", "value": "116 % of control"},
      {"measurement": "T/C", "setting": "endpoint: mean survival time, dose: 160.0 mg/kg/injection, schedule: Q01DX009 (ip), vehicle: sodium bicarbonate", "value": "123 % of control"},
      {"measurement": "T/C", "setting": "endpoint: median survival time, dose: 125.0 mg/kg/injection, schedule: Q01DX009 (ip), vehicle: sodium bicarbonate", "value": "123 % of control"},
      {"measurement": "T/C", "setting": "endpoint: median survival time, dose: 150.0 mg/kg/injection, schedule: Q01DX009 (ip), vehicle: sodium bicarbonate", "value": "112 % of control"}
    ]},
    {"smiles": "CC(C)NC(=O)CCCCn1c(=O)c2ccccc2c(=O)n1C", "values": [
      {"measurement": "T/C", "setting": "endpoint: mean survival time, dose: 25.0 mg/kg/injection, schedule: Q04DX003 (ip), vehicle: saline", "value": "96 % of control"},
      {"measurement": "T/C", "setting": "endpoint: mean survival time, dose: 50.0 mg/kg/injection, schedule: Q04DX003 (ip), vehicle: saline", "value": "96 % of control"},
      {"measurement": "T/C", "setting": "[1]", "value": "98 % of control"},
      {"measurement": "T/C", "setting": "[2]", "value": "113 % of control"},
      {"measurement": "T/C", "setting": "[3]", "value": "104 % of control"}
    ]},
    {"smiles": "CC(=O)c1ccc(C(=O)CC(O)(C(F)(F)F)C(F)(F)F)cc1", "values": [
      {"measurement": "T/C", "setting": "endpoint: mean survival time, dose: 50.0 mg/kg/injection, schedule: Q01DX009 (ip), vehicle: other", "value": "98 % of control"},
      {"measurement": "T/C", "setting": "endpoint: mean survival time, dose: 100.0 mg/kg/injection, schedule: Q01DX009 (ip), vehicle: other", "value": "104 % of control"},
      {"measurement": "T/C", "setting": "endpoint: mean survival time, dose: 100.0 mg/kg/injection, schedule: Q04DX003 (ip), vehicle: other", "value": "95 % of control"},
      {"measurement": "T/C", "setting": "endpoint: mean survival time, dose: 200.0 mg/kg/injection, schedule: Q01DX009 (ip), vehicle: other", "value": "106 % of control"},
      {"measurement": "T/C", "setting": "endpoint: mean survival time, dose: 200.0 mg/kg/injection, schedule: Q04DX003 (ip), vehicle: other", "value": "97 % of control"}
    ]},
    {"smiles": "C=CCNC1CCS(=O)(=O)C1", "note": "(centres undefined)", "values": [
      {"measurement": "T/C", "setting": "endpoint: mean survival time, dose: 50.0 mg/kg/injection, schedule: Q01DX009 (ip), vehicle: saline", "value": "104 % of control"},
      {"measurement": "T/C", "setting": "endpoint: mean survival time, dose: 100.0 mg/kg/injection, schedule: Q01DX009 (ip), vehicle: saline", "value": "97 % of control"},
      {"measurement": "T/C", "setting": "endpoint: mean survival time, dose: 200.0 mg/kg/injection, schedule: Q01DX009 (ip), vehicle: saline", "value": "104 % of control"}
    ]},
    {"smiles": "CCCCCCCCCCCCCCCC(=O)Nc1ccc2c(c1)[nH]c(=O)c1cc(NC(=O)CCCCCCCCCCCCCCC)ccc12", "values": [
      {"measurement": "T/C", "setting": "endpoint: mean survival time, dose: 100.0 mg/kg/injection, schedule: Q04DX002 (ip), vehicle: saline with Tween-80", "value": "98 % of control"},
      {"measurement": "T/C", "setting": "endpoint: mean survival time, dose: 200.0 mg/kg/injection, schedule: Q04DX002 (ip), vehicle: saline with Tween-80", "value": "111 % of control"},
      {"measurement": "T/C", "setting": "endpoint: mean survival time, dose: 400.0 mg/kg/injection, schedule: Q04DX002 (ip), vehicle: saline with Tween-80", "value": "102 % of control"}
    ]},
    {"smiles": "CNC/C(C)=C/Br", "values": [
      {"measurement": "T/C", "setting": "endpoint: mean survival time, dose: 50.0 mg/kg/injection, schedule: Q01DX009 (ip), vehicle: acetone", "value": "101 % of control"},
      {"measurement": "T/C", "setting": "endpoint: mean survival time, dose: 100.0 mg/kg/injection, schedule: Q04DX003 (ip), vehicle: acetone", "value": "101 % of control"},
      {"measurement": "T/C", "setting": "endpoint: mean survival time, dose: 200.0 mg/kg/injection, schedule: Q04DX003 (ip), vehicle: acetone", "value": "97 % of control"}
    ]},
    {"smiles": "O=C1C=CC(=Nc2ccccc2)O1", "values": [
      {"measurement": "T/C", "setting": "endpoint: mean survival time, dose: 2.5 mg/kg/injection, schedule: Q01DX009 (ip), vehicle: saline with Tween-80", "value": "96 % of control"},
      {"measurement": "T/C", "setting": "endpoint: mean survival time, dose: 2.5 mg/kg/injection, schedule: Q04DX003 (ip), vehicle: saline with Tween-80", "value": "101 % of control"},
      {"measurement": "T/C", "setting": "endpoint: mean survival time, dose: 5.0 mg/kg/injection, schedule: Q01DX009 (ip), vehicle: saline with Tween-80", "value": "102 % of control"},
      {"measurement": "T/C", "setting": "endpoint: mean survival time, dose: 5.0 mg/kg/injection, schedule: Q04DX003 (ip), vehicle: saline with Tween-80", "value": "101 % of control"},
      {"measurement": "T/C", "setting": "endpoint: mean survival time, dose: 10.0 mg/kg/injection, schedule: Q01DX009 (ip), vehicle: saline with Tween-80", "value": "93 % of control"},
      {"measurement": "T/C", "setting": "endpoint: mean survival time, dose: 10.0 mg/kg/injection, schedule: Q04DX003 (ip), vehicle: saline with Tween-80", "value": "98 % of control"}
    ]},
    {"smiles": "C=CCN(CC=C)N=Nc1ccc(C(N)=O)cc1", "values": [
      {"measurement": "T/C", "setting": "endpoint: mean survival time, dose: 19.75 mg/kg/injection, schedule: Q01DX009 (ip), vehicle: Klucel (hydroxypropylcellulose) (HPC)", "value": "102 % of control"},
      {"measurement": "T/C", "setting": "endpoint: mean survival time, dose: 39.5 mg/kg/injection, schedule: Q01DX009 (ip), vehicle: Klucel (hydroxypropylcellulose) (HPC)", "value": "102 % of control"},
      {"measurement": "T/C", "setting": "endpoint: mean survival time, dose: 79.0 mg/kg/injection, schedule: Q01DX009 (ip), vehicle: Klucel (hydroxypropylcellulose) (HPC)", "value": "114 % of control and 110 % of control"},
      {"measurement": "T/C", "setting": "endpoint: mean survival time, dose: 118.0 mg/kg/injection, schedule: Q01DX009 (ip), vehicle: Klucel (hydroxypropylcellulose) (HPC)", "value": "100 % of control"},
      {"measurement": "T/C", "setting": "endpoint: mean survival time, dose: 177.0 mg/kg/injection, schedule: Q01DX009 (ip), vehicle: Klucel (hydroxypropylcellulose) (HPC)", "value": "112 % of control"}
    ]},
    {"smiles": "O=C(O)C(O)C(O)C(=O)O", "note": "(centres undefined)", "values": [
      {"measurement": "T/C", "setting": "endpoint: mean survival time, dose: 100.0 mg/kg/injection, schedule: Q01DX001 (ip), vehicle: saline", "value": "103 % of control"},
      {"measurement": "T/C", "setting": "endpoint: mean survival time, dose: 100.0 mg/kg/injection, schedule: Q01DX009 (ip), vehicle: saline with Tween-80", "value": "102 % of control"},
      {"measurement": "T/C", "setting": "endpoint: mean survival time, dose: 100.0 mg/kg/injection, schedule: Q04DX003 (ip), vehicle: saline with Tween-80", "value": "97 % of control"},
      {"measurement": "T/C", "setting": "[1]", "value": "110 % of control"},
      {"measurement": "T/C", "setting": "endpoint: mean survival time, dose: 200.0 mg/kg/injection, schedule: Q01DX001 (ip), vehicle: saline", "value": "106 % of control"},
      {"measurement": "T/C", "setting": "endpoint: mean survival time, dose: 200.0 mg/kg/injection, schedule: Q01DX009 (ip), vehicle: saline with Tween-80", "value": "102 % of control"},
      {"measurement": "T/C", "setting": "endpoint: mean survival time, dose: 200.0 mg/kg/injection, schedule: Q04DX003 (ip), vehicle: saline with Tween-80", "value": "92 % of control"},
      {"measurement": "T/C", "setting": "[2]", "value": "98 % of control"},
      {"measurement": "T/C", "setting": "endpoint: mean survival time, dose: 400.0 mg/kg/injection, schedule: Q01DX001 (ip), vehicle: saline", "value": "110 % of control"},
      {"measurement": "T/C", "setting": "endpoint: mean survival time, dose: 400.0 mg/kg/injection, schedule: Q04DX003 (ip), vehicle: saline with Tween-80", "value": "97 % of control"},
      {"measurement": "T/C", "setting": "[3]", "value": "101 % of control"}
    ]}
  ]
}
